This is an account of results in US10882844B2, “Compounds useful as immunomodulators” (Bristol-Myers Squibb Company, priority 2016, dated 2021).

PD-1/PD-L1, sequence (Q9NZQ7 other isoform, or with tags, fused parts or gaps): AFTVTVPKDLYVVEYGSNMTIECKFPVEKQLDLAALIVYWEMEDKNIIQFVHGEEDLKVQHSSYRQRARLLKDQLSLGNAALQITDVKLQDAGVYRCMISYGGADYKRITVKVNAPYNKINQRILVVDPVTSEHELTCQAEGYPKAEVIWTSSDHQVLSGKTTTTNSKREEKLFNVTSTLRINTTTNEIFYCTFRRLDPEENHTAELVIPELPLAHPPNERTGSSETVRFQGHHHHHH

For one assay, the target named is PD-1/PD-L1 (Homo sapiens (Human), UniProt Q9NZQ7). In words: PD-1/PD-L1 Homogenous Time-Resolved Fluorescence (HTRF) binding assay. Conditions: PD-1-Ig / PD-L1-His HTRF; value given as number; read-out: Range or IC50. An excerpt:
The ability of the compounds of formula (I) to bind to PD-L1 was investigated using a PD-1/PD-L1 Homogenous Time-Resolved Fluorescence (HTRF) binding assay.
Homogenous Time-Resolved Fluorescence (HTRF) binding assay.
The interaction of PD-1 and PD-L1 can be assessed using soluble, purified preparations of the extracellular domains of the two proteins. The PD-1 and PD-L1 protein extracellular domains were expressed as fusion proteins with detection tags, for PD-1, the tag was the Fc portion of Immunoglobulin (PD-1-Ig) and for PD-L1 it was the 6 histidine motif (PD-L1-His). All binding studies were performed in an HTRF assay buffer consisting of dPBS supplemented with 0.1% […] bovine serum albumin and 0.05% (v/v) Tween-20. For the h/PD-L1-His binding assay, inhibitors were pre-incubated with PD-L1-His (10 nM final) for 15 m in 4 μl of assay buffer, followed by addition of PD-1-Ig (20 nM final) in 1 μl of assay buffer and further incubation for 15 m. HTRF detection was achieved using europium crypate-labeled anti-Ig (1 nM final) and allophycocyanin (APC) labeled anti-His (20 nM final). Antibodies were diluted in HTRF detection buffer and 5 μl was dispensed on top of the binding reaction. The reaction mixture was allowed to equilibrate for 30 minutes and the resulting signal (665 nm/620 nm ratio) was obtained using an EnVision fluorometer. Additional binding assays were established between the human proteins PD-1-Ig/PD-L2-His (20 & 5 nM, respectively) and CD8O-His/PD-L1-Ig (100 & 10 nM, respectively).
Recombinant Proteins: Human PD-1 (25-167) with a C-terminal human Fc domain of immunoglobulin G (Ig) epitope tag [hPD-1 (25-167)-3S-IG] and human PD-L1 (18-239) with a C-terminal His epitope tag [hPD-L1(18-239)-TVMV-His] were expressed in HEK293T cells and purified sequentially by ProteinA affinity chromatography and size exclusion chromatography. Human PD-L2-His and CD80-His was obtained through commercial sources.
The table below lists the IC50 values for representative examples of this disclosure measured in the PD-1/PD-L1 Homogenous Time-Resolved Fluorescence (HTRF) binding assay. Ranges are as follows: A=0.18 nM-0.99 nM; B=1.0 nM-5.0 nM; C=5.01 nM-10.1 nM; D=10.2 nM-200 nM; E=201 nM→10 uM
A general note: In TR-FRET formats the signal depends on donor and acceptor labels being close together.
In the case of `Cc1c(COc2cc(OCc3cncc(C#N)c3)c(CN(C)C(CO)CO)cc2Cl)cccc1-c1ccc2oc(N3C[C@@H]4C[C@H]3CN4C)nc2c1` [Example 2001], the IC50 (as a rule, the concentration that inhibits the measured activity by half) was 3.8 nM.

Staying with this assay, now noted: PD-1-Ig / PD-L1-His HTRF; value given as range class; read-out: Range or IC50.
Turning to `Cc1c(COc2cc(OCc3cncc(C#N)c3)c(CN3CCCC[C@H]3C(=O)O)cc2Cl)cccc1-c1ccc2oc(C3CCN(C(C)C)CC3)nc2c1` [Example 1013, (S)-1-(5-chloro-2-((5-cyanopyridin-3-yl)methoxy)-4-((3-(2-(1-isopropylpiperidin-4-yl)benzo[d]oxazol-5-yl)-2-methylbenzyl)oxy)benzyl)piperidine-2-carboxylic Acid], the IC50 was in the range of 1 to 5 nM.
Turning to `Cc1c(COc2cc(OCc3cncc(C#N)c3)c(CN3CCCC[C@H]3C(=O)O)cc2Cl)cccc1-c1ccc2oc(N3C[C@@H]4C[C@H]3CN4C)nc2c1` [Example 2002, (S)-1-(5-chloro-2-((5-cyanopyridin-3-yl)methoxy)-4-((2-methyl-3-(2-((1S,4S)-5-methyl-2,5-diazabicyclo[2.2.1]heptan-2-yl)benzo[d]oxazol-5-yl)benzyl)oxy)benzyl)piperidine-2-carboxylic Acid], the IC50 was in the range of 5.01 to 10.1 nM.
`Cc1c(COc2cc(OCc3cncc(C#N)c3)c(CN[C@H](C(=O)O)C(C)C)cc2Cl)cccc1-c1ccc2oc(N3CCN(C)CC3)nc2c1` [Example 2013, (S)-2-((5-chloro-2-((5-cyanopyridin-3-yl)methoxy)-4-((2-methyl-3-(2-(4-methylpiperazin-1-yl)benzo[d]oxazol-5-yl)benzyl)oxy)benzyl)amino)-3-methylbutanoic Acid]: the IC50 was in the range of 1 to 5 nM.
With `Cc1c(COc2cc(OCc3cncc(C#N)c3)c(CN3CCCC[C@H]3C(=O)O)cc2Cl)cccc1-c1ccc2oc(N3CCN(C)CC3)nc2c1` [Example 2007, (S)-1-(5-chloro-2-((5-cyanopyridin-3-yl)methoxy)-4-((2-methyl-3-(2-(4-methylpiperazin-1-yl)benzo[d]oxazol-5-yl)benzyl)oxy)benzyl)piperidine-2-carboxylic Acid], the IC50 was 1 to 5 nM.
Take `Cc1c(COc2cc(OCc3cncc(C#N)c3)c(CN3CCCC[C@H]3C(=O)O)cc2Cl)cccc1-c1ccc2nc(C3CCN(C)CC3)oc2c1` [Example 1002, (S)-1-(5-chloro-2-((5-cyanopyridin-3-yl)methoxy)-4-((2-methyl-3-(2-(1-methylpiperidin-4-yl)benzo[d]oxazol-6-yl)benzyl)oxy)benzyl)piperidine-2-carboxylic Acid]: the IC50 was in the range of 1 to 5 nM.
For `Cc1c(COc2cc(OCc3cncc(C#N)c3)c(CO)cc2Cl)cccc1-c1ccc2oc(C3CCN(C)CC3)nc2c1` [Example 1021, 5-((4-chloro-2-(hydroxymethyl)-5-((2-methyl-3-(2-(1-methylpiperidin-4-yl)benzo[d]oxazol-5-yl)benzyl)oxy)phenoxy)methyl)nicotinonitrile], the IC50 was in the range of 5.01 to 10.1 nM.
In the case of `Cc1c(COc2cc(OCc3cncc(C#N)c3)c(CN3CCCC[C@H]3C(=O)O)cc2Cl)cccc1-c1ccc2oc(C3CCN(c4ccccc4)CC3)nc2c1` [Example 1022, (S)-1-(5-chloro-2-((5-cyanopyridin-3-yl)methoxy)-4-((2-methyl-3-(2-(1-phenylpiperidin-4-yl)benzo[d]oxazol-5-yl)benzyl)oxy)benzyl)piperidine-2-carboxylic Acid], the IC50 was 10.2 to 200 nM.
As to `Cc1c(COc2cc(OCc3cncc(C#N)c3)c(CN3CCCC[C@H]3C(=O)O)cc2Cl)cccc1-c1cc(C)c2oc(C3CCN(C)CC3)nc2c1` [Example 1009, (S)-1-(5-chloro-2-((5-cyanopyridin-3-yl)methoxy)-4-((2-methyl-3-(7-methyl-2-(1-methylpiperidin-4-yl)benzo[d]oxazol-5-yl)benzyl)oxy)benzyl)piperidine-2-carboxylic Acid], the IC50 is 1 to 5 nM.
For the molecule `CCC[C@@H](C(=O)O)N(C)Cc1cc(Cl)c(OCc2cccc(-c3ccc4oc(N5CCN(C)CC5)nc4c3)c2C)cc1OCc1cncc(C#N)c1` [Example 2018, (S)-2-((5-chloro-2-((5-cyanopyridin-3-yl)methoxy)-4-((2-methyl-3-(2-(4-methylpiperazin-1-yl)benzo[d]oxazol-5-yl)benzyl)oxy)benzyl)(methyl)amino)pentanoic Acid], the IC50 lay within 1 to 5 nM.
`Cc1c(COc2cc(OCc3cncc(C#N)c3)c(CN3CCCC[C@H]3C(=O)O)cc2Cl)cccc1-c1ccc2oc(-c3ccncc3)nc2c1` [Example 1007, (S)-1-(5-chloro-2-((5-cyanopyridin-3-yl)methoxy)-4-((2-methyl-3-(2-(pyridin-4-yl)benzo[d]oxazol-5-yl)benzyl)oxy)benzyl)piperidine-2-carboxylic Acid]: the IC50 lay within 1 to 5 nM.
For `Cc1c(COc2cc(OCc3cncc(C#N)c3)c(CN3CCCC[C@H]3C(=O)O)cc2Cl)cccc1-c1ccc2oc(C3CCN(CC(=O)O)CC3)nc2c1` [Example 1016, (S)-1-(4-((3-(2-(1-(carboxymethyl)piperidin-4-yl)benzo[d]oxazol-5-yl)-2-methylbenzyl)oxy)-5-chloro-2-((5-cyanopyridin-3-yl)methoxy)benzyl)piperidine-2-carboxylic Acid], the IC50 fell in the range of 0.18 to 0.99 nM.
For the molecule `Cc1c(COc2cc(OCc3cncc(C#N)c3)c(CN3CCCC[C@H]3C(=O)O)cc2Cl)cccc1-c1ccc2oc(C3CCOCC3)nc2c1` [Example 1017, (S)-1-(5-chloro-2-((5-cyanopyridin-3-yl)methoxy)-4-((2-methyl-3-(2-(tetrahydro-2H-pyran-4-yl)benzo[d]oxazol-5-yl)benzyl)oxy)benzyl)piperidine-2-carboxylic Acid], the 50% inhibitory concentration (IC50) lay within 0.18 to 0.99 nM.
For `Cc1c(COc2cc(OCc3cncc(C#N)c3)c(CN[C@](C)(CO)C(=O)O)cc2Cl)cccc1-c1ccc2oc(C3CCN(C)CC3)nc2c1` [Example 1020, (R)-2-((5-chloro-2-((5-cyanopyridin-3-yl)methoxy)-4-((2-methyl-3-(2-(1-methylpiperidin-4-yl)benzo[d]oxazol-5-yl)benzyl)oxy)benzyl)amino)-3-hydroxy-2-methylpropanoic Acid], the IC50 was in the range of 0.18 to 0.99 nM.
Regarding `Cc1c(COc2cc(OCc3cncc(C#N)c3)c(CN3CCCC[C@H]3C(=O)O)cc2Cl)cccc1-c1ccc2oc(C3CCN(C)CC3)nc2c1C` [Example 1010, (S)-1-(5-chloro-2-((5-cyanopyridin-3-yl)methoxy)-4-((2-methyl-3-(4-methyl-2-(1-methylpiperidin-4-yl)benzo[d]oxazol-5-yl)benzyl)oxy)benzyl)piperidine-2-carboxylic Acid], the IC50 was in the range of 1 to 5 nM.
For `Cc1c(COc2cc(OCc3cncc(C#N)c3)c(CN3CCCC[C@H]3C(=O)O)cc2Cl)cccc1-c1ccc2oc(C3CCC(C(=O)O)CC3)nc2c1` (single isomer, unassigned) [Example 1025], the IC50 lay within 0.18 to 0.99 nM.
As to `Cc1c(COc2cc(OCc3cncc(C#N)c3)c(CN(C)[C@@H](CO)C(=O)O)cc2Cl)cccc1-c1ccc2oc(N3CCN(C)CC3)nc2c1` [Example 2016, N-(5-chloro-2-((5-cyanopyridin-3-yl)methoxy)-4-((2-methyl-3-(2-(4-methylpiperazin-1-yl)benzo[d]oxazol-5-yl)benzyl)oxy)benzyl)-N-methyl-L-serine], the IC50 is 1 to 5 nM.
As for `Cc1c(COc2cc(OCc3cncc(C#N)c3)c(CN3CCCC[C@H]3C(=O)O)cc2Cl)cccc1-c1ccc2oc(C3CCCN(C)C3)nc2c1` (stereo partly drawn) [Example 1003, (2S)-1-(5-chloro-2-((5-cyanopyridin-3-yl)methoxy)-4-((2-methyl-3-(2-(1-methylpiperidin-3-yl)benzo[d]oxazol-5-yl)benzyl)oxy)benzyl)piperidine-2-carboxylic Acid], the IC50 lay in the range of 1 to 5 nM.
As for `Cc1c(COc2cc(OCc3cncc(C#N)c3)c(CN3CCCC[C@H]3C(=O)O)cc2Cl)cccc1-c1ccc2oc(C3CCNCC3)nc2c1` [Example 1004, (S)-1-(5-chloro-2-((5-cyanopyridin-3-yl)methoxy)-4-((2-methyl-3-(2-(piperidin-4-yl)benzo[d]oxazol-5-yl)benzyl)oxy)benzyl)piperidine-2-carboxylic Acid], the IC50 lay in the range of 1 to 5 nM.
The same measure, in the same setting: the same measure for `Cc1c(COc2cc(OCc3cncc(C#N)c3)c(CN3CCCC[C@H]3C(=O)O)cc2Cl)cccc1-c1ccc2oc(C3CC4CCC(C3)O4)nc2c1` (stereo partly drawn) [Example 1018, (2S)-1-(4-((3-(2-(8-oxabicyclo[3.2.1]octan-3-yl)benzo[d]oxazol-5-yl)-2-methylbenzyl)oxy)-5-chloro-2-((5-cyanopyridin-3-yl)methoxy)benzyl)piperidine-2-carboxylic Acid]: 1 to 5 nM.
